# Columns and labels:
# Escherichia coli MP32-64 = test system: T1, Escherichia coli MP32-64; assay: microbe, parasite or virus in culture; parameters: species or system E. coli E. cloni 10G; Microdilution MIC of inhibitor alone in LB, OD600 read-out, E. coli 10G without or with empty vector; settings: MP3264, inhibitor alone, read-out: MIC APC24-7
# T1 construct: MP32-64
# Experimental: (§1) Susceptibility testing of isogenic E. coli E. cloni 10G (Table 2) was determined by both the microdilution assay. […] Overnight cultures were prepared in LB supplemented with 25 mg/L chloramphenicol at 37°C under shaking at 700 rpm. The overnight cultures were diluted in PBS to 10^6 CFU/ mL, followed by inoculation in LB to ~10^5 CFU in 384-well plates (VWR, Radnor, PA, USA). Plates were prepared with twofold increasing concentrations of meropenem and cefepime ([…], respectively) to a total inoculated volume of 100 µL Plates were incubated at 37°C without shaking for 19–21 h. OD600 was determined in a SpectraMax Plus plate reader (Molecular Devices).
# Escherichia coli MP21-05 = test system: T2, Escherichia coli MP21-05; assay: microbe, parasite or virus in culture; parameters: species or system E. coli E. cloni 10G; Microdilution MIC of inhibitor alone in LB, OD600 read-out, E. coli 10G without or with empty vector; settings: MP2105, inhibitor alone, read-out: MIC APC24-7
# T2 construct: MP21-05
# Experimental: as §1
# VIM-7 = VIM-7 (Pseudomonas aeruginosa, UniProt Q840P9); assay: biochemical; parameters: Residual beta-lactamase activity; meropenem (NDM-1, 300 nm) or nitrocefin (others, 480 nm) hydrolysis, 1 uM Zn2+ (OXA-48: bicarbonate)
# Chain of VIM-7 (Q840P9 18-265): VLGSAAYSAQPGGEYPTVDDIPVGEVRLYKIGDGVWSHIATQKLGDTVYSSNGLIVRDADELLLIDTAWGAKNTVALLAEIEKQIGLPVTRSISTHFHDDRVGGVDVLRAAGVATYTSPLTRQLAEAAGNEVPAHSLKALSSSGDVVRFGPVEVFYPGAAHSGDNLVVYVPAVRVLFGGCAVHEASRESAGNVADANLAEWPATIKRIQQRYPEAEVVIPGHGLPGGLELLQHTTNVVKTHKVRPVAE
# Experimental: (§2) IC50 determination with purified enzymes was performed as previously described ([40]). In brief, enzymes were diluted in 50 mM HEPES, pH 7.5, supplemented with 1 µM Zn^2+. For OXA-48, 50 mM HEPES, pH 7.5, was supplemented with 50 mM sodium bicarbonate buffer solution (Sigma Aldrich). Enzymes and inhibitors were mixed at various inhibitor concentrations, and absorbance was measured by spectrophotometry (Table S5). For NDM-1 and MBP-NDM-9, the hydrolysis of meropenem (24 µM) was monitored at 300 nm using UV- transparent 96-well plates (Corning, Kennebunk, ME). For all other enzymes, nitrocefin (24 µM, Millipore Sigma, USA) hydrolysis was monitored at 480 nm. The residual enzyme activity at various inhibitor concentrations was calculated in comparison to the initial reaction velocity of the inhibitor-free […] control. Dose-response curves were fitted using nonlinear regression in GraphPad Prism v. 10.5.0. All tests were performed at least in duplicates at 25°C.
# OXA-48 = OXA-48 (Klebsiella pneumoniae, UniProt Q6XEC0); assay: biochemical; parameters: Residual beta-lactamase activity; meropenem (NDM-1, 300 nm) or nitrocefin (others, 480 nm) hydrolysis, 1 uM Zn2+ (OXA-48: bicarbonate)
# Chain of OXA-48 (Q6XEC0 23-265 limits assumed): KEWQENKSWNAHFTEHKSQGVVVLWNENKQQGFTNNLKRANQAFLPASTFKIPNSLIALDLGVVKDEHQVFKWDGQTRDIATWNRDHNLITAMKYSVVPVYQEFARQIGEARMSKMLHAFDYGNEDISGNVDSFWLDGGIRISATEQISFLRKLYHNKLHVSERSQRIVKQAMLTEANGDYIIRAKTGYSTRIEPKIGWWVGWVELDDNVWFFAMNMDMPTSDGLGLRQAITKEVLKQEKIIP
# Experimental: as §2
# NDM-1 = target: T3, NDM-1 (Klebsiella pneumoniae, UniProt C7C422); assay: biochemical; parameters: Residual beta-lactamase activity; meropenem (NDM-1, 300 nm) or nitrocefin (others, 480 nm) hydrolysis, 1 uM Zn2+ (OXA-48: bicarbonate)
# T3 construct: gene blaNDM-1
# T3 sequence (C7C422 29-270 limits assumed): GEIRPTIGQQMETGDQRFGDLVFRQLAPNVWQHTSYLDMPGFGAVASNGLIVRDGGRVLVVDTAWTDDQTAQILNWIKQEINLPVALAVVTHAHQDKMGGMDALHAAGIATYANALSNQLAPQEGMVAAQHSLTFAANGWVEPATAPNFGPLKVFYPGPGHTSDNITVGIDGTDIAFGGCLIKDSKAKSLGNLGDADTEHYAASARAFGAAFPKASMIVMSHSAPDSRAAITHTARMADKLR
# Experimental: as §2
# VIM-2 = target: T4, VIM-2 (Pseudomonas aeruginosa, UniProt Q9K2N0); parameters: Residual beta-lactamase activity; meropenem (NDM-1, 300 nm) or nitrocefin (others, 480 nm) hydrolysis, 1 uM Zn2+ (OXA-48: bicarbonate); settings: inhibitor
# T4 construct: gene blaVIM-2
# Experimental: as §2
# [1] = test system: T5, Klebsiella pneumoniae BAA-2146™; assay: microbe, parasite or virus in culture; parameters: species or system clinical isolates of E. coli and K. pneumoniae; settings: Klebsiella pneumoniae, BAA2146; inhibitor alone; read-out: MIC APC24-7
# T5 construct: ATCC BAA-2146
# Experimental: (§3) MICs for clinical isolates were determined in a broth microdilution assay according to Clinical and Laboratory Standards Institute (CLSI) ([75]), using cation-adjusted Mueller-Hinton broth (Thermo Fisher Scientific, Lenexa, USA). The direct colony suspension method was utilized by preparing an inoculum of an OD600 0.17, except for E. coli #36 in which 0.10 was used, which equated to a concentration of 10^8 colony-forming units (CFU) per mL. Inoculum controls were included for all assays ([76]). […] Subsequently, we aimed to identify a potent β-lactam/APC24-7 combination capable of reversing β-lactamase-mediated BL resistance in our clinical isolates. All 16 isolates were exposed to increasing concentrations of meropenem (carbapenem), aztreonam (monobactam), ceftazidime and cefepime (cephalosporins), as well as amoxicillin (penicillin), both in the absence and presence of 57 µM (32 mg/L) of APC24-7. The effectiveness of these combinations was assessed based on their ability to resensitize the clinical isolates according to the clinical breakpoints (EUCAST clinical breakpoint table version 15.0, www.eucast.org).
# [2] = test system: T6, Escherichia coli BAA-2469™; assay: microbe, parasite or virus in culture; parameters: species or system clinical isolates of E. coli and K. pneumoniae; settings: Escherichia coli, BAA2469; inhibitor alone; read-out: MIC APC24-7
# T6 construct: ATCC BAA-2469
# Experimental: as §3
# [3] = test system: T7, Klebsiella pneumoniae BAA1705™; assay: microbe, parasite or virus in culture; parameters: species or system clinical isolates of E. coli and K. pneumoniae; settings: Klebsiella pneumoniae, BAA1705; inhibitor alone; read-out: MIC APC24-7
# T7 construct: ATCC BAA-1705
# Experimental: as §3
# [4] = test system: T8, Klebsiella pneumoniae K46-62; assay: microbe, parasite or virus in culture; parameters: species or system clinical isolates of E. coli and K. pneumoniae; settings: Klebsiella pneumoniae, K4662; inhibitor alone; read-out: MIC APC24-7
# T8 construct: K46-62
# Experimental: as §3
compound,measurement,setting,value
O=C(N[C@H]1Cc2cccc(C(=O)O)c2OB1O)c1ccc(CNCCN(Cc2ccccn2)Cc2ccccn2)cc1 [APC24-7],MIC,Escherichia coli MP32-64,> 906 µM
same,MIC,Escherichia coli MP21-05,> 906 µM
same,IC50,VIM-7,1080 nM
same,IC50,OXA-48,420 nM
same,IC50,NDM-1,140 nM
same,IC50,VIM-2,110 nM
same,MIC,[1],> 906 µM
same,MIC,[2],> 906 µM
same,MIC,[3],> 906 µM
same,MIC,[4],> 906 µM

# Reference: paper PMC12724231, “APC24-7, a covalent combination of boronic acid and chelator moieties, restores β-lactam efficiency against metallo-β-lactamase-producers” (mSphere, 2025)
